Results reported in patent US10294202B2, “Pyrrolidinones as herbicides” (FMC Corporation, priority 2013, dated 2019).

Key:
[1] = test system: barnyardgrass; assay: Test A pre-/postemergence herbicide test; format: in vivo, Echinochloa crus-galli
In short: (§1)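 Seeds sown in loam soil/sand blend received a preemergence directed soil spray of test chemical in non-phytotoxic solvent with surfactant; postemergence plants (2–10 cm, one- to two-leaf stage) were sprayed with the same formulation. After about 10 days in greenhouse, injury was rated visually versus untreated controls, 0 (no effect) to 100 (complete control).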

[2] = test system: kochia; assay: Test A pre-/postemergence herbicide test; format: in vivo, Kochia scoparia; conditions: for Plant response rating, Kochia: 0 to 100 scale
In short: as §1

[3] = test system: ragweed; assay: Test A pre-/postemergence herbicide test; format: in vivo, Ambrosia elatior; conditions: for Plant response rating, Ragweed: 0 to 100 scale
In short: as §1

[4] = test system: ryegrass, Italian; assay: Test A pre-/postemergence herbicide test; format: in vivo, Lolium multiflorum; conditions: for Plant response rating, Ryegrass, Italian: 0 to 100 scale
In short: as §1

[5] = test system: giant foxtail; assay: Test A pre-/postemergence herbicide test; format: in vivo, Setaria faberii; conditions: for Plant response rating, Foxtail, Giant: 0 to 100 scale
In short: as §1

[6] = test system: pigweed; assay: Test A pre-/postemergence herbicide test; format: in vivo, Amaranthus retroflexus; conditions: for Plant response rating, Pigweed: 0 to 100 scale
In short: as §1

[7] = test system: wheat; assay: Test A pre-/postemergence herbicide test; format: in vivo, Triticum aestivum; conditions: Postemergence; for Plant response rating, Wheat: 125 g ai/ha, 0 to 100 scale, 0 no effect, 100 complete control; for Wheat plant response rating (0 to 100 scale, 0 is no effect, 100 is complete control): 500 g ai/ha
In short: as §1

[8] = test system: corn; assay: Test A pre-/postemergence herbicide test; format: in vivo, Zea mays; conditions: Postemergence
In short: as §1

[9] = test system: blackgrass; assay: Test A postemergence herbicide test; format: in vivo, Alopecurus myosuroides
In short: (§2)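 Plants at the one- to two-leaf stage, 2–10 cm tall, grown in loam/sand pots, received postemergence sprays of the test chemicals. After about 10 days in the greenhouse, injury was scored visually against untreated controls on a 0–100 scale (0 none, 100 complete control).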

[10] = test system: galium; assay: Test A postemergence herbicide test; format: in vivo, Galium aparine; conditions: for Plant response rating, Galium: 125 g ai/ha, 0 to 100 scale, 0 no effect, 100 complete control; for Galium plant response rating (0 to 100 scale, 0 is no effect, 100 is complete control): 500 g ai/ha
In short: as §2

[11] = test system: rice; assay: Test B flooded paddy test; format: in vivo, Oryza sativa; conditions: 500 g ai/ha, Flood; scale of 0 to 100 where 0 is no effect and 100 is complete control
In short: (§3)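 Scored visually 0–100 (0 no effect, 100 complete control) versus controls after 13 to 15 greenhouse days. Treatment: compound added to paddy water kept 3 cm above soil, on 2-leaf-stage plants.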

[12] = test system: sedge, umbrella; assay: Test B flooded paddy test; format: in vivo, Cyperus difformis; conditions: 500 g ai/ha, Flood; scale of 0 to 100 where 0 is no effect and 100 is complete control
In short: as §3

[13] = test system: ducksalad; assay: Test B flooded paddy test; format: in vivo, Heteranthera limosa; conditions: 500 g ai/ha, Flood; scale of 0 to 100 where 0 is no effect and 100 is complete control
In short: as §3

[14] = test system: barnyardgrass; assay: Test B flooded paddy test; format: in vivo, Echinochloa crus-galli; conditions: 500 g ai/ha, Flood; scale of 0 to 100 where 0 is no effect and 100 is complete control
In short: as §3

[15] = 125 g ai/ha, visual rating, 0 to 100 scale, 0 no effect, 100 complete control, approximately 10 days, preemergence
[16] = Postemergence, 125 g ai/ha, 0 to 100 scale, 0 no effect, 100 complete control
[17] = preemergence, 500 g ai/ha, 0 to 100 scale (0 no effect, 100 complete control)
[18] = 125 g ai/ha, visual rating, 0 no effect, 100 complete control, approximately 10 days, preemergence
[19] = Postemergence, 125 g ai/ha, 0 no effect, 100 complete control
[20] = 125 g ai/ha, 0 to 100 scale, 0 no effect, 100 complete control
[21] = 500 g ai/ha, 0 to 100 scale (0 no effect, 100 complete control)

Compound | Plant response rating, Barnyardgrass [1, 15] | Plant response rating, Barnyardgrass [1, 16] | Plant response rating, Barnyardgrass [1, 17] | Plant response rating, Kochia [2, 18] | Plant response rating, Kochia [2, 19] | Kochia plant response rating (0 to 100 scale, 0 is no effect, 100 is complete control) ([2]; Postemergence, 500 g ai/ha) | Plant response rating, Kochia ([2]; preemergence, 500 g ai/ha) | Plant response rating, Ragweed [3, 18] | Plant response rating, Ragweed [3, 19] | Ragweed plant response rating (0 to 100 scale, 0 is no effect, 100 is complete control) ([3]; Postemergence, 500 g ai/ha) | Plant response rating, Ragweed ([3]; preemergence, 500 g ai/ha) | Plant response rating, Ryegrass, Italian [4, 18] | Plant response rating, Ryegrass, Italian [4, 19] | Ryegrass, Italian plant response rating (0 to 100 scale, 0 is no effect, 100 is complete control) ([4]; Postemergence, 500 g ai/ha) | Plant response rating, Ryegrass, Italian ([4]; preemergence, 500 g ai/ha) | Plant response rating, Foxtail, Giant [5, 18] | Plant response rating, Foxtail, Giant [5, 19] | Foxtail, Giant plant response rating (0 to 100 scale, 0 is no effect, 100 is complete control) ([5]; Postemergence, 500 g ai/ha) | Plant response rating, Foxtail, Giant ([5]; preemergence, 500 g ai/ha) | Plant response rating, Pigweed [6, 18] | other results
COc1cc(C2CNC(=O)C2C(=O)Nc2ccccc2Cl)ccc1F (racemic) [Compound 133] | 20 | 30 | 30 | 0 | 0 | 0 | 0 | 0 | 0 | 0 | 0 | 0 | 0 | 0 | 0 | 30 | 20 | 50 | 90 | 0 | Barnyardgrass plant response rating (0 to 100 scale, 0 is no effect, 100 is complete control) ([1]; Postemergence, 500 g ai/ha): 80; Plant response rating, Pigweed [6, 19]: 0; Pigweed plant response rating (0 to 100 scale, 0 is no effect, 100 is complete control) ([6]; Postemergence, 500 g ai/ha): 0; Plant response rating, Pigweed ([6]; preemergence, 500 g ai/ha): 0; Plant response rating, Wheat [7]: 0; Wheat plant response rating (0 to 100 scale, 0 is no effect, 100 is complete control) [7]: 0; Plant response rating, Corn [8, 20]: 0; Corn plant response rating (0 to 100 scale, 0 is no effect, 100 is complete control) ([8]; 500 g ai/ha): 0; Plant response rating, Blackgrass [9, 20]: 0; Blackgrass plant response rating (0 to 100 scale, 0 is no effect, 100 is complete control) ([9]; 500 g ai/ha): 0; Plant response rating, Galium [10]: 0; Galium plant response rating (0 to 100 scale, 0 is no effect, 100 is complete control) [10]: 0; Plant response rating, Rice [11]: 0; Plant response rating, Sedge, Umbrella [12]: 0; Plant response rating, Ducksalad [13]: 60; Plant response rating, Barnyardgrass [14]: 30
O=C1NCC(c2cccc(OC(F)(F)C(F)F)c2)C1C(=O)Nc1ccc(F)cc1F (racemic) [Compound 122] | 80 | 70 | 90 | 60 | 70 | 70 | 70 | 0 | 30 | 70 | 60 | 0 | 0 | 40 | 0 | 90 | 80 | 80 | 90 | 50 | Plant response rating, Barnyardgrass ([1]; Postemergence, 500 g ai/ha, 0 to 100 scale (0 no effect, 100 complete control)): 80; Plant response rating, Pigweed [6, 19]: 60; Pigweed plant response rating (0 to 100 scale, 0 is no effect, 100 is complete control) ([6]; Postemergence, 500 g ai/ha): 80; Plant response rating, Pigweed ([6]; preemergence, 500 g ai/ha): 80; Plant response rating, Wheat [7]: 50; Wheat plant response rating (0 to 100 scale, 0 is no effect, 100 is complete control) [7]: 60; Plant response rating, Corn [8, 20]: 40; Plant response rating, Corn [8, 21]: 60; Plant response rating, Blackgrass [9, 20]: 50; Plant response rating, Blackgrass [9, 21]: 70; Plant response rating, Galium [10]: 70; Galium plant response rating (0 to 100 scale, 0 is no effect, 100 is complete control) [10]: 80; Plant response rating, Rice [11]: 15; Plant response rating, Sedge, Umbrella [12]: 0; Plant response rating, Ducksalad [13]: 100; Plant response rating, Barnyardgrass [14]: 65
